{
  "source": "patent US4707475A",
  "about": "“Agent for lowering serum prolactin levels” (priority 1985, dated 1987)",
  "key": {"[1]": {"system": "dopamine autoreceptors (DA-autoreceptors)", "details": "cited from earlier work; for selectivity as DA-autoreceptor agonist: compared with B-HT 920, literature"}, "[2]": {"system": "DA-receptors", "details": "cited from earlier work; for action as DA agonist: Gudelsky et al."}, "[3]": {"system": "prolactin", "details": "Gudelsky 1983; cited from earlier work"}, "[4]": {"system": "prolactin level", "assay": "Prolactin level in blood of 6 healthy male subjects after 150 μg B-HT 920 (PROLRIA-100 radioimmunological method)", "assay_type": "in vivo, healthy male subjects (human)", "set-up": "unit not given here", "experimental": "The compound B-HT 920 is tested for its effect on PRL-reduction as follows. The tests are carried out with 6 healthy male subjects ranging in age from 24 to 34, each subject being given 150 μg of B-HT 920. Blood samples are taken from each subject at intervals of 0, 1, 2, 3 and 5 hours. The prolactin level in the sample is determined by the known PROLRIA-100 radioimmunological method of the National Insitute of the Radioelements, 6220 Fleurs, Belgium. The following table contains the results found for each subject at the 1 hour intervals shown."}, "[5]": {"system": "endogenous dopamine synthesis in the brain", "details": "in vivo, Anden et al. 1983; cited from earlier work"}, "[6]": {"assay": "Tolerability (general statement)", "details": "in vivo"}, "[7]": {"system": "prolactin (PRL)", "assay": "Lowering of blood and serum levels of prolactin (general statement)", "details": "in vivo"}},
  "data": [
    {"smiles": "CCCN1CCCC(c2cccc(O)c2)C1", "note": "(stereo not shown) [3-PPP]", "values": [
      {"measurement": "selectivity as DA-autoreceptor agonist", "setting": "[1]", "result": "not selectively active as DA-autoreceptor agonists"},
      {"measurement": "action as DA agonist", "setting": "[2]", "result": "act preferentially as DA agonists"},
      {"measurement": "prolactin inhibiting activity", "setting": "[3]", "result": "prolactin inhibiting activity"}
    ]},
    {"smiles": "C=CCN1CCc2nc(N)sc2CC1.Cl.Cl", "note": "[B-HT 920, 6-allyl-2-amino-5,6,7,8-tetrahydro-4H-thiazolo-[4,5-d]azepine dihydrochloride]", "values": [
      {"measurement": "effect on dopamine autoreceptors", "setting": "[1]; Anden et al. 1982", "result": "selective agonistic effect on dopamine autoreceptors"},
      {"measurement": "prolactin level", "setting": "[4]; subject 1, 1 hour", "result": 2.56},
      {"measurement": "prolactin level", "setting": "[4]; subject 1, 2 hours", "result": 0.52},
      {"measurement": "prolactin level", "setting": "[4]; subject 1, 3 hours", "result": 2.52},
      {"measurement": "prolactin level", "setting": "[4]; subject 1, 5 hours", "result": 3.26},
      {"measurement": "prolactin level", "setting": "[4]; subject 1, time 0", "result": 3.33},
      {"measurement": "prolactin level", "setting": "[4]; subject 2, 1 hour", "result": 2.85},
      {"measurement": "prolactin level", "setting": "[4]; subject 2, 2 hours", "result": 0.69},
      {"measurement": "prolactin level", "setting": "[4]; subject 2, 3 hours", "result": 0.52},
      {"measurement": "prolactin level", "setting": "[4]; subject 2, 5 hours", "result": 2.25},
      {"measurement": "prolactin level", "setting": "[4]; subject 2, time 0", "result": 3.86},
      {"measurement": "prolactin level", "setting": "[4]; subject 3, 1 hour", "result": 4.15},
      {"measurement": "prolactin level", "setting": "[4]; subject 3, 2 hours", "result": 4.92},
      {"measurement": "prolactin level", "setting": "[4]; subject 3, 5 hours", "result": 1.85},
      {"measurement": "prolactin level", "setting": "[4]; subject 3, time 0", "result": 4.22},
      {"measurement": "prolactin level", "setting": "[4]; subject 4, 1 hour", "result": 4.52},
      {"measurement": "prolactin level", "setting": "[4]; subject 4, 2 hours", "result": 7.89},
      {"measurement": "prolactin level", "setting": "[4]; subject 4, 5 hours", "result": 4.11},
      {"measurement": "prolactin level", "setting": "[4]; subject 4, time 0", "result": 5.04},
      {"measurement": "prolactin level", "setting": "[4]; subject 5, 1 hour", "result": 7.19},
      {"measurement": "prolactin level", "setting": "[4]; subject 5, 2 hours", "result": 1.37},
      {"measurement": "prolactin level", "setting": "[4]; subject 5, 3 hours", "result": 3.43},
      {"measurement": "prolactin level", "setting": "[4]; subject 5, 5 hours", "result": 2.89},
      {"measurement": "prolactin level", "setting": "[4]; subject 5, time 0", "result": 5.00},
      {"measurement": "prolactin level", "setting": "[4]; subject 6, 1 hour", "result": 7.59},
      {"measurement": "prolactin level", "setting": "[4]; subject 6, 2 hours", "result": 1.57},
      {"measurement": "prolactin level", "setting": "[4]; subject 6, 5 hours", "result": 4.33},
      {"measurement": "prolactin level", "setting": "[4]; subject 6, time 0", "result": 6.59},
      {"measurement": "effect on endogenous dopamine synthesis", "setting": "[5]", "result": "inhibits endogenous dopamine synthesis in the brain"}
    ]},
    {"smiles": "CN(C)C1CCc2cc(O)c(O)cc2C1", "note": "(stereo not shown) [TL-99]", "values": [
      {"measurement": "selectivity as DA-autoreceptor agonist", "setting": "[1]", "result": "not selectively active as DA-autoreceptor agonists"},
      {"measurement": "action as DA agonist", "setting": "[2]", "result": "act preferentially as DA agonists"},
      {"measurement": "postsynaptic activity", "setting": "[2]; effect on the DA-receptors, Pastor et al. 1983", "result": "possibly has a postsynaptic activity"},
      {"measurement": "prolactin inhibiting activity", "setting": "[3]", "result": "prolactin inhibiting activity"}
    ]},
    {"smiles": "CN1CCc2cccc3c2[C@H]1Cc1ccc(O)c(O)c1-3", "note": "[apomorphine]", "values": [
      {"measurement": "selectivity as DA-autoreceptor agonist", "setting": "[1]", "result": "not selectively active as DA-autoreceptor agonists"},
      {"measurement": "action on DA-receptors and DA-autoreceptors", "setting": "[2]; well known", "result": "acts both on DA-receptors and also on DA-autoreceptors"}
    ]},
    {"smiles": "C=CCN1CCc2nc(N)sc2CC1", "note": "[compound A, 6-allyl-2-amino-5,6,7,8-tetrahydro-4H-thiazolo-[4,5-d]azepine]", "values": [
      {"measurement": "tolerability", "setting": "[6]", "result": "well tolerated"},
      {"measurement": "effect on blood and serum levels of prolactin (PRL)", "setting": "[7]", "result": "lower the blood and serum levels of prolactin (PRL)"}
    ]}
  ]
}
